One data set has as its system TRPM2 channels. Further details: method as in PMID 36921602. As to conditions: activation of TRPM2 channels; cited from earlier work.
Another data set relates to HEK 293T cell line. Kind of data set: MQAE intracellular chloride measurement in HEK 293T cell line. Type of data set: cell-based, human. The note with it: lacking KCC2 expression. The text has this: Since bilirubin‐induced activation of WNK1 kinase activity increases [Cl⁻]i in neurons, we sought to elucidate the downstream effector proteins of WNK1 that are involved in this process. Neuronal [Cl⁻]i is primarily regulated by the Cl⁻‐K⁺ symporter KCC2, with additional modulation by factors such as the Na⁺‐K⁺‐Cl⁻ co‐transporter NKCC1, GABAA receptors, and glycine receptors (GlyR), all of which contribute to [Cl⁻]i homeostasis.^[ [31] ^] To investigate the mechanism underlying bilirubin‐induced changes in [Cl⁻]i, we selectively targeted these proteins using pharmacological inhibitors (VU0463271 for KCC2, bumetanide for NKCC1, bicuculline for GABAA receptors, and strychnine for GlyR) and activated KCC2 using CLP257.^[ [35], [36] ^] […] The bilirubin‐induced effect on [Cl⁻]i was not observed in primary astrocytes (Figure S15A,B, Supporting Information) or the HEK 293T cell line (Figure S15C, Supporting Information), both of which lacked KCC2 expression (Figure S16A,B, Supporting Information), further confirming that the effects of bilirubin and WNK1 on [Cl⁻]i elevation are dependent on KCC2.
Intracellular chloride concentration ([Cl⁻]i) was measured using the MQAE fluorescent dye (Life Technologies) following established protocols (Zhang, Lee et al. 2015). […]

Another data set concerns the target T1, hWNK3 (Homo sapiens, UniProt Q9BYP7).
T1 construct: host or cells: HEK293T
Put plainly: MST, WNK kinase family member WNK3. Format: binding. On the procedure:
To validate the direct binding of bilirubin to WNK1, we performed a Microscale Thermophoresis (MST) analysis, which assesses the binding capacity of a compound by measuring the movement of proteins over a microscopic temperature gradient.^[ [26], [27] ^] We overexpressed full‐length WNK1 fused with Green Fluorescent Protein (GFP) in HEK‐293 cells, incubated the lysates with bilirubin at varying dilutions, and subjected them to precise MST measurements in capillaries. […] Furthermore, biliverdin, a structurally similar intermediate product generated before bilirubin formation, was used as a control.
(§1) All WNK1 clones were derived from the original untagged hWNK1 cDNA (NM_018979), which was modified and subcloned into the pcDNA3.1, referred to as “full‐length WNK1” throughout this study. Truncated constructs, including 1–190aa, 191–491aa, 1–491aa, and 491–2382aa fragments, were generated by PCR using the full‐length template and subsequently ligated into linearized pcDNA3.1 vectors. WNK2 was obtained from Addgene Plasmid #24569, and WNK3 was obtained from Addgene Plasmid #81723. Both were subjected to base modifications and cloned into pcDNA3.1. The WNK4 clone was derived from hWNK4 cDNA (NM_032387.5), modified, and subcloned into the pCMV3‐C‐GFPSpark vector.
In HEK293T cells, proteins tagged with green fluorescent protein (GFP) were expressed. […]

The target in data set [1] is T2, point mutations of WNK1 (1–491) (Homo sapiens, UniProt Q9H4A3, T301A).
T2 construct: EGFP‐tagged point mutations of WNK1 (1–491) (15 min) in lysates; expressed in transfected cells; host or cells: HEK293T
T2 sequence (Q9H4A3 1-491 T301A): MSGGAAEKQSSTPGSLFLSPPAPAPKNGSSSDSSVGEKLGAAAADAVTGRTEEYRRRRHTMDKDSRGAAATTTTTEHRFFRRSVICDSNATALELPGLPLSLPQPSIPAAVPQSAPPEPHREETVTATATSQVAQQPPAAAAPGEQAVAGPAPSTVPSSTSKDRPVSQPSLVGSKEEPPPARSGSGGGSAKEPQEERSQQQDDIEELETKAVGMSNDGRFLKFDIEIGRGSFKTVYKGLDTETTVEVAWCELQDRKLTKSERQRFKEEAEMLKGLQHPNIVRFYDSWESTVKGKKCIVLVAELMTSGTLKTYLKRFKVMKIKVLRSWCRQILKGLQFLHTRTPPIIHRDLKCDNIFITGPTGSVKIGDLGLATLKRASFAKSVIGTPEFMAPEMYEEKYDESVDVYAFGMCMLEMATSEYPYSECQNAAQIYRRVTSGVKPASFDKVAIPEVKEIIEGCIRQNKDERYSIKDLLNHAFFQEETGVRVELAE
Put plainly: MST, EGFP-tagged point mutations of WNK1 (1–491). Format: binding. The note with it: WNK1-N T301A. From the text: Molecular docking identified several crucial amino acid residues within binding site 1 of the kinase domain for the binding of WNK1 and bilirubin. These residues included Thr301 (T301), Met304 (M304), Lys351 (K351), and Phe356 (F356) (Figure 3C). To investigate this further, we constructed WNK1‐N mutants by replacing these residues with alanine (A). […] This finding highlights the critical role of these residues in bilirubin binding.
In HEK293T cells, proteins tagged with green fluorescent protein (GFP) were expressed. The cells were lysed using the M‐PER Mammalian Protein Extraction Reagent (cat. no. 78505, Thermo Scientific) supplemented with protease inhibitors. Lysates were centrifuged at 12000 × g for 15 min at 4 °C, and the supernatant containing proteins was diluted 10‐fold with 1x PBST. Protein fluorescence intensity and solubility were assessed using capillary scanning at 60% LED power.
For the binding assay, the proteins were mixed with ligands and incubated for 15 min at room temperature before being loaded into Monolith NT.115 Capillaries or NT.115 Premium Capillaries (NanoTemper Technologies, MO‐K022 and MO‐K025). MST measurements were performed on a Monolith NT.115 instrument (NanoTemper Technologies) at 25 °C. Instrument parameters included no more than 80% excitation power and a medium MST power. Data analysis was conducted using the MO. Affinity Analysis software (NanoTemper Technologies).

For the next data set, the target named is T3, WNK1 (1–491) (Homo sapiens, UniProt Q9H4A3).
T3 construct: different lengths of WNK1 truncations (1–491, 1–190, 191–491, 491–2382); expressed in transfected cells; host or cells: HEK293T
T3 sequence (Q9H4A3 1-491): as the sequence (Q9H4A3 1-491 T301A) above, with A301T counted along it
Put plainly: MST, EGFP-tagged WNK1 truncation 1–491. Format: binding. As to conditions: WNK1 1–491, 15 min, HEK293T lysates.
Text: To further validate these findings, we constructed GFP‐tagged fusion proteins with different lengths of WNK1 truncations (1–491, 1–190, 191–491, 491–2382) based on the WNK1 domains (Figure 3E) and analyzed their binding capacity with bilirubin using MST analysis.^[ [29] ^]
as §1
In HEK293T cells, proteins tagged with green fluorescent protein (GFP) were expressed. The cells were lysed using the M‐PER Mammalian Protein Extraction Reagent (cat. no. 78505, Thermo Scientific) supplemented with protease inhibitors. Lysates were centrifuged at 12000 × g for 15 min at 4 °C, and the supernatant containing proteins was diluted 10‐fold with 1x PBST. […]

The nature of data set [2]: Osmolarity of different bilirubin concentrations. Format: physicochemical. The note with it: low concentrations of bilirubin. From the text:
To further investigate the impact of bilirubin on WNK1 kinase activity, we generated hippocampal neuron‐specific Wnk1 knockout mice. Given that conventional Wnk1 knockout mice are embryonically lethal, we employed the CRISPR/Cas9 method to create mice carrying the floxed Wnk1 gene. Then we crossed Thy1‐Cre mice with Wnk1^flox/flox mice to generate hippocampal neuron‐specific Wnk1 knockout mice. We examined the effects of bilirubin on the phosphorylation of WNK1 downstream targets, Ste20‐related proline alanine‐rich kinase (SPAK), and oxidative stress‐responsive kinase 1 (OSR1), in the hippocampus of Wnk1^flox/flox and Wnk1^flox/flox,Thy1‐Cre mice. Upon bilirubin treatment, phosphorylation of OSR1 and SPAK was elevated in the hippocampus of Wnk1^flox/flox mice. […] These findings indicate that the effect of bilirubin on OSR1 and SPAK phosphorylation is WNK1‐dependent (Figure 4B). To rule out the potential effects of osmolarity on the phosphorylation of WNK1, OSR1, and SPAK, we measured the osmolarity of different bilirubin concentrations.

For the next data set, the target named is PPARα. Further details: method as in PMID 37390966, PMID 34067839. The note with it: liver and adipose tissue; cited from earlier work.

What is called EC50 is the concentration needed to bring the measured effect to its halfway point. Broadly, the Kd is a measure of binding affinity in units of concentration.

T1 sequence (Q9BYP7 whole entry): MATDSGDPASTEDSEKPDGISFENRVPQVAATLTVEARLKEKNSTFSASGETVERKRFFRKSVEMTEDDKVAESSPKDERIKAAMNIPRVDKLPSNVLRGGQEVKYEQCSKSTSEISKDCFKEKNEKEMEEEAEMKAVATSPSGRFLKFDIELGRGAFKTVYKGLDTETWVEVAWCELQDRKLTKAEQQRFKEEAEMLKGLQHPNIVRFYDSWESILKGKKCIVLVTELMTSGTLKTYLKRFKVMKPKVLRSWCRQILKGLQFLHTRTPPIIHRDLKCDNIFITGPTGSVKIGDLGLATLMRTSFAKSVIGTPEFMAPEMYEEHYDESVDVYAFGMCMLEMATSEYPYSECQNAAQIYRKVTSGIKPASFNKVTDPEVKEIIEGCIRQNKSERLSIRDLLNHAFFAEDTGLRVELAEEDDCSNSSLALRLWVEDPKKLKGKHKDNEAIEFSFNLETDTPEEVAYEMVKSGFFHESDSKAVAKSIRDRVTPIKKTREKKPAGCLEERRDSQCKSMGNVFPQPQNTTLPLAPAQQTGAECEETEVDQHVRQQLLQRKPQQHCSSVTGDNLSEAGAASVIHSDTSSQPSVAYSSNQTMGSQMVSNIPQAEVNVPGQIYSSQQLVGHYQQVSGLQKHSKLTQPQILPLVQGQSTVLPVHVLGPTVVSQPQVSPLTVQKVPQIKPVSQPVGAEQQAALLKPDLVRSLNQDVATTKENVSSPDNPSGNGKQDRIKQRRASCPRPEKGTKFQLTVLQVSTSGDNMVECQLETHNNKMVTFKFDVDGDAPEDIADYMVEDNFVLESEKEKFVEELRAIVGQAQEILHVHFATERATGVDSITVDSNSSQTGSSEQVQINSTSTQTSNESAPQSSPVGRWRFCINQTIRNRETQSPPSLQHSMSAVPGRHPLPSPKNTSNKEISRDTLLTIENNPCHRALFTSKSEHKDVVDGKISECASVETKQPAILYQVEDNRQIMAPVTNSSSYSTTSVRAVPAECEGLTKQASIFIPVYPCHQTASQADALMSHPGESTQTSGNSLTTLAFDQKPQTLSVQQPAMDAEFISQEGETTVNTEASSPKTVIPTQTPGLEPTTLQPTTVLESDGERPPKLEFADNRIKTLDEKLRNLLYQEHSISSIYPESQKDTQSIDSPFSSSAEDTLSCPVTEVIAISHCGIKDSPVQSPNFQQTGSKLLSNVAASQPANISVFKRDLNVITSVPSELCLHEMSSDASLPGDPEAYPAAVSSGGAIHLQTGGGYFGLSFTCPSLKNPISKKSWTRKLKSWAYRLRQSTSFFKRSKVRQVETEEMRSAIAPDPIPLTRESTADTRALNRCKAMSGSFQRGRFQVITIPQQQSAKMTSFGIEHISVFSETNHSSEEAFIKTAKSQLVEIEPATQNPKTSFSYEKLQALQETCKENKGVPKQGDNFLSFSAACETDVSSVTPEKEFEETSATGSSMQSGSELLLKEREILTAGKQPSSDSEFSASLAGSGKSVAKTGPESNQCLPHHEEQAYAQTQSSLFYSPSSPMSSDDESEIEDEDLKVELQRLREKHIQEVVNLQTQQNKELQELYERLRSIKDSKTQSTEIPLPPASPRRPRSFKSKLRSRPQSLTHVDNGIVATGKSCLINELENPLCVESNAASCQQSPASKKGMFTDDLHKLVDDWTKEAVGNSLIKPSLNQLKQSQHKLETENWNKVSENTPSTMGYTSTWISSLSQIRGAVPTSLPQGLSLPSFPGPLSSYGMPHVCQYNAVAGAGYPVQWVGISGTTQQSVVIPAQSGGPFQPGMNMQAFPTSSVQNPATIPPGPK

Consider `C=CC1=C(C)/C(=C/c2[nH]c(Cc3[nH]c(/C=C4\NC(=O)C(C)=C4C=C)c(C)c3CCC(=O)O)c(CCC(=O)O)c2C)NC1=O` [bilirubin, Bilirubin], for which, in the data set on TRPM2 channels, the EC50 is 1900 nM. Also, the “bilirubin-induced effect on [Cl−]i” value with HEK 293T cell line was “not observed”. Also, the Kd at hWNK3 was 760 nM; at WNK1 (1–491), 315 nM; on PPARα, 5130 nM. Moreover, the “binding to T301A mutant” value in data set [1] is listed as “unable to bind”. Moreover, the osmolarity entry in data set [2] is given as “didn't change the osmolarity”.

These data come from article PMC12362796, “Bilirubin Targeting WNK1 to Alleviate NLRP3‐Mediated Neuroinflammation” (Advanced Science, 2025).
